Experimental data published in article PMC11768584 (Viruses, 2025).
Where two headings read alike, the source gives them in different places.

How the values were obtained:
rLCMV/GFP-P2A-NP [1] = assay: organism not typed; type: cell-based, LCMV; conditions: for EC50: A549, read-out: EC50, LCMV multiplication (GFP expression)
in vitro [2] = conditions: human
LCMV vRNP = molecular target: T1, LCMV vRNP (Lymphocytic choriomeningitis virus, UniProt P09992+P14240); type: cell-based
T1 construct: expressed in transfected cells; host or cells: HEK293T

rLCMV/GFP-P2A-NP [3] = type: cell-based, LCMV
LASV vRNP = LASV vRNP (UniProt P13699+Q6GWS6); type: cell-based
[4] = molecular target: T2, LCMV GPC (GP2-mediated fusion) (Lymphocytic choriomeningitis virus, UniProt P09991); type: cell-based
T2 construct: expressed in transfected cells; host or cells: HEK293T
T2 sequence (P09991 266-498 limits assumed): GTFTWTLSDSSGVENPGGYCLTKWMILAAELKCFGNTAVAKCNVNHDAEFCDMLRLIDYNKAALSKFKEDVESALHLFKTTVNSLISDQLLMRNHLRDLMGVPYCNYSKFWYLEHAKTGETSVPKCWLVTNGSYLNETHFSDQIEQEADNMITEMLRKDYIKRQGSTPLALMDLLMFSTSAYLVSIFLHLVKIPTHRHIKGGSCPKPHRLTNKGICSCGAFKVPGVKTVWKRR
T2 sequence (P09991 59-265 limits assumed): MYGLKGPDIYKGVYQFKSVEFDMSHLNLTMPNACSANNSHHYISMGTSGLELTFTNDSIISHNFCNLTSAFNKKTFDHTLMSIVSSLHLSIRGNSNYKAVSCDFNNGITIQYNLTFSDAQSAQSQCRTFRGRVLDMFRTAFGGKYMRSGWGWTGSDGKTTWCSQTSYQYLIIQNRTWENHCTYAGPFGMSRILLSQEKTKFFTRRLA
T2 sequence (P09991 2-58 limits assumed): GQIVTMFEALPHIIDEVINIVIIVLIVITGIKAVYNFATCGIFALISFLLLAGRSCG

[5] = tested on: r3JUNVCandid GFP/GFP (r3Can-GFP); type: cell-based, JUNV
[6] = cited from earlier work
rLCMV/GFP-P2A-NP [7] = tested on: rLCMV/GFP-P2A-NP; design: species or system LCMV
in vitro [8] = conditions: African green monkey, CC50 (CellTiter 96 Aqueous One)
rLCMV/GFP-P2A-NP [9] = assay: organism not typed; type: cell-based, LCMV; conditions: for EC50: Hec50, read-out: EC50, LCMV multiplication (GFP expression)
mammarenavirus = conditions: cited from earlier work

T1 sequence (P09992 whole entry): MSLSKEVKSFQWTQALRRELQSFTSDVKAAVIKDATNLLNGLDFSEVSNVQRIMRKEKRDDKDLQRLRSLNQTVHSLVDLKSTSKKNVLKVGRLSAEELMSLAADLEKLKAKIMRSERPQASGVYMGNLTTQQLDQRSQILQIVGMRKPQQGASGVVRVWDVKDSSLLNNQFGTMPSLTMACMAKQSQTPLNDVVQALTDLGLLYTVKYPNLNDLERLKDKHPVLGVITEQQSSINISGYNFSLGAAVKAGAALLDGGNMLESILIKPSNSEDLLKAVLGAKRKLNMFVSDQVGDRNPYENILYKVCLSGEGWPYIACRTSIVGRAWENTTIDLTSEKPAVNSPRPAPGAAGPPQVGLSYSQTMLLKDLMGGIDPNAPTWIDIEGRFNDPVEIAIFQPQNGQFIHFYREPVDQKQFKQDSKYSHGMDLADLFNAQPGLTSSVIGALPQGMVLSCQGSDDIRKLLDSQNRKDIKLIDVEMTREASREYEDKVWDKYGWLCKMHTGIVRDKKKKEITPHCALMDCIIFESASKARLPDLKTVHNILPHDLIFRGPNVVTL
T1 sequence (P14240 whole entry): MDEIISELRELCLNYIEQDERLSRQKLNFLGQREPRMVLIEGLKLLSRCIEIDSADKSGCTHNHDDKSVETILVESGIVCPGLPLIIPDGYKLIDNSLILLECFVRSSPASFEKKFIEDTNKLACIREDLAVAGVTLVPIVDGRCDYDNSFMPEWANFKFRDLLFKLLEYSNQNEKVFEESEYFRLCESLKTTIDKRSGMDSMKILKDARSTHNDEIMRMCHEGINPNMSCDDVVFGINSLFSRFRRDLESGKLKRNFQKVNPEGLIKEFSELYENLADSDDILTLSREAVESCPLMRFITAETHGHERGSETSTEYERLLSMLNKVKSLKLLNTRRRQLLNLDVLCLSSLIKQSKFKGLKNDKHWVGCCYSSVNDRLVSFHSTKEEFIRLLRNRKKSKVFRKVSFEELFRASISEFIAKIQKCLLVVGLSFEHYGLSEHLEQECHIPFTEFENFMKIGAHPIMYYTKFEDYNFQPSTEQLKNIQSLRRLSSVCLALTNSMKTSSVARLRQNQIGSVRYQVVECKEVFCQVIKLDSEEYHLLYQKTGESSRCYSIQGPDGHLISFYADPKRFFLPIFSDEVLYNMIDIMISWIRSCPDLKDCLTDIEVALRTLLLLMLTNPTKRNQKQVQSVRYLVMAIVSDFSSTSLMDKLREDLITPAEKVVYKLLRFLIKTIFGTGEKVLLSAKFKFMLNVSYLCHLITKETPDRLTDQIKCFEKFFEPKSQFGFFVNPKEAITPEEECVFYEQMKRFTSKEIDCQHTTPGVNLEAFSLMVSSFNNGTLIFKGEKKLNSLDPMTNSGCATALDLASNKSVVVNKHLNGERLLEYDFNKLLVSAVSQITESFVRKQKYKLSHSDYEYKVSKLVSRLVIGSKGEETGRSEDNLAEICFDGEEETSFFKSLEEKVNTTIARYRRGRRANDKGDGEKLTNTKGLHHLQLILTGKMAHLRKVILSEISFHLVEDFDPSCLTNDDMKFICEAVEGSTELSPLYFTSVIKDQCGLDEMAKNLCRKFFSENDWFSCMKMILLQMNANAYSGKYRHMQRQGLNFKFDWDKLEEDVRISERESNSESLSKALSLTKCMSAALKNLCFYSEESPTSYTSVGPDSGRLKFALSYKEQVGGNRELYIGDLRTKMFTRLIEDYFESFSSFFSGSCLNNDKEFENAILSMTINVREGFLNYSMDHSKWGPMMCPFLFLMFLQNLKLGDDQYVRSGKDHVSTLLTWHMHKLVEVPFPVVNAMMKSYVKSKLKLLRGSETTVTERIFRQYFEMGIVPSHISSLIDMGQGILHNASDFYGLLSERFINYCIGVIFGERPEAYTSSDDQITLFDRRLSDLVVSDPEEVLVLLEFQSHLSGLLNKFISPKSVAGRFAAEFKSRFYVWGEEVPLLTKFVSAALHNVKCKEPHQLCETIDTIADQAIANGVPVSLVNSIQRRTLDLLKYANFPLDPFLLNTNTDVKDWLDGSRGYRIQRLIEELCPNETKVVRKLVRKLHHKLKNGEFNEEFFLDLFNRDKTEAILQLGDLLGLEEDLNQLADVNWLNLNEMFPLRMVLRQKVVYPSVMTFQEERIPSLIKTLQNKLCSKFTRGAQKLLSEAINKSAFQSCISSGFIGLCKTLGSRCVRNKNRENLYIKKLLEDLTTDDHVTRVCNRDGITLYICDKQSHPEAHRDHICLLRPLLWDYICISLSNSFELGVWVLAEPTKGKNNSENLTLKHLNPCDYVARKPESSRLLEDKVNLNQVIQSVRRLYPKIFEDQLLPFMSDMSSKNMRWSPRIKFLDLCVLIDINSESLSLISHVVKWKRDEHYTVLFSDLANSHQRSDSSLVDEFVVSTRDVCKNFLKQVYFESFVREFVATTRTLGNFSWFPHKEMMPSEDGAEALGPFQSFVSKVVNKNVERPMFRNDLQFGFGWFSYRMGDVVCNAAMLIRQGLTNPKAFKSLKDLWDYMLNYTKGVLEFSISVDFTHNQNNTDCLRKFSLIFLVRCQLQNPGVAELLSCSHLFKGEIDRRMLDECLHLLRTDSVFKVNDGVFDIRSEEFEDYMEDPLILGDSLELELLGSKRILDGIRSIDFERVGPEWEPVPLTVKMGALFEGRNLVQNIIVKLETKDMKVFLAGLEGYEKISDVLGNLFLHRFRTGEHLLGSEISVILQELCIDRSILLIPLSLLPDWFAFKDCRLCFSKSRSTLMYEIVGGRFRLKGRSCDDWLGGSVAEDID

COC(=O)C1=C(C)NC(C)=C(C(=O)OC)C1c1ccccc1[N+](=O)[O-] [Nifidipine, nifedipine]
Anti-LCMV activity of calcium channel blockers (in words) (rLCMV/GFP-P2A-NP [1]): did not exhibit significant anti-LCMV activity | EC50 (rLCMV/GFP-P2A-NP [1]): > 100 µM

COc1ccc(CCN(C)CCCC(C#N)(c2ccc(OC)c(OC)c2)C(C)C)cc1OC (stereo not drawn) [Verapamil, verapamil]
CC50 (in vitro [2]): > 100 µM | Anti-LCMV activity of calcium channel blockers (in words) (rLCMV/GFP-P2A-NP [1]): did not exhibit significant anti-LCMV activity | EC50 (rLCMV/GFP-P2A-NP [1]): > 100 µM

Fc1ccc(C(c2ccc(F)cc2)N2CCN(C/C=C/c3ccccc3)CC2)cc1 [FLN, Flunarizine]
CC50 (in vitro [2]): 74.3 µM | Inhibition of LCMV MG activity (in words) (LCMV vRNP): strongest inhibitory effect | Inhibition of LCMV MG vRNP-directed reporter gene (GFP) expression (LCMV vRNP): ~ 75% | Levels of viral (LCMV NP) RNA determined by RT-qPCR (rLCMV/GFP-P2A-NP [3]): reduced | Virus cell propagation (GFP imaging) (rLCMV/GFP-P2A-NP [3]): reduced virus cell propagation | Reduction in LASV MG-directed ZsGreen expression levels vs vehicle control (LASV vRNP): ~ 50% | GP2-mediated pH-dependent fusion (syncytium formation) [4]: inhibition of GP2-mediated fusion | Reduction in r3Can-GFP (JUNV) virus peak titers vs VC [5]: > 1 log | Bound to plasma proteins [6]: More than 99% | Virucidal activity: effect on virion infectivity (rLCMV/GFP-P2A-NP [7]): did not significantly affect virion infectivity | CC50 (in vitro [8]): > 100 µM

C=C1CC[C@H](O)C/C1=C/C=C1\CCC[C@]2(C)[C@@H]([C@H](C)/C=C/[C@H](C)C(C)C)CC[C@@H]12 [Vit D, ergocalciferol]
Inhibitory activity on LCMV multiplication (in words) (rLCMV/GFP-P2A-NP [9]): very poor inhibitory activity | EC50 (rLCMV/GFP-P2A-NP [9]): > 100 µM | Inhibition of LCMV MG activity (in words) (LCMV vRNP): minimal inhibitory activities | Reduction in LASV MG-directed ZsGreen expression levels vs vehicle control (LASV vRNP): ~ 18% | Toxicity on Vero cells (in words) (Vero cells): minimal toxicity | CC50 (in vitro [8]): > 100 µM

[Cl][Ni][Cl] [Nickel Chloride, nickel chloride]
CC50 (A549 cells): > 100 µM | Anti-LCMV activity of calcium channel blockers (in words) (rLCMV/GFP-P2A-NP [1]): did not exhibit significant anti-LCMV activity

C[C@@H]1C[C@H]2[C@@H]3CCC4=CC(=O)C=C[C@]4(C)[C@@]3(F)[C@@H](O)C[C@]2(C)[C@@]1(O)C(=O)CO [DEX, dexamethasone]
Inhibitory activity on LCMV multiplication (in words) (rLCMV/GFP-P2A-NP [9]): very poor inhibitory activity | Inhibition of LCMV MG activity (in words) (LCMV vRNP): minimal inhibitory activities | Reduction in LASV MG-directed ZsGreen expression levels vs vehicle control (LASV vRNP): ~ 28% | Toxicity on Vero cells (in words) (Vero cells): minimal toxicity | CC50 (in vitro [8]): 55.7 µM

Clc1ccc(Cn2c(CN3CCCC3)nc3ccccc32)cc1 [clemizole]
Anti-mammarenavirus activity (in words) (mammarenavirus): does not exhibit anti-mammarenavirus activity

NCC1(CC(=O)O)CCCCC1 [Gabapentin, gabapentin]
CC50 (in vitro [2]): > 100 µM | Anti-LCMV activity of calcium channel blockers (in words) (rLCMV/GFP-P2A-NP [1]): did not exhibit significant anti-LCMV activity | EC50, LCMV multiplication (GFP expression) (rLCMV/GFP-P2A-NP [1]): >Flat

CN1CC(=O)N2[C@H](c3ccc4c(c3)OCO4)c3[nH]c4ccccc4c3C[C@@H]2C1=O [TAD, tadalafil]
Inhibitory activity on LCMV multiplication (in words) (rLCMV/GFP-P2A-NP [9]): very poor inhibitory activity | EC50 (rLCMV/GFP-P2A-NP [9]): > 100 µM | Inhibition of LCMV MG activity (in words) (LCMV vRNP): minimal inhibitory activities | Reduction in LASV MG-directed ZsGreen expression levels vs vehicle control (LASV vRNP): ~ 12% | Toxicity on Vero cells (in words) (Vero cells): minimal toxicity | CC50 (in vitro [8]): > 100 µM

OC(c1cc(C(F)(F)F)nc2c(C(F)(F)F)cccc12)C1CCCCN1 (stereo not drawn) [MEF, mefloquine]
selective index (SI) (rLCMV/GFP-P2A-NP [9]): 1.87 | EC50 (rLCMV/GFP-P2A-NP [9]): 15.5 µM | Inhibition of LCMV MG activity (in words) (LCMV vRNP): minimal inhibitory activities | Reduction in LASV MG-directed ZsGreen expression levels vs vehicle control (LASV vRNP): 5% | CC50 (Vero cells; African green monkey): 27.3 µM | CC50 (in vitro [8]): 29.1 µM
